Measured values from patent publication US12227490B2, “Cereblon binding compounds, compositions thereof, and methods of treatment therewith” (Celgene Corporation, priority 2020, dated 2025).
Counter-ions that a name gives are not always drawn.

Biological target: T1, AR (androgen receptor) protein in VCaP cells (Homo sapiens, UniProt P10275)
T1 construct: endogenous in cells; host or cells: VCaP cells
T1 sequence (P10275 1-920): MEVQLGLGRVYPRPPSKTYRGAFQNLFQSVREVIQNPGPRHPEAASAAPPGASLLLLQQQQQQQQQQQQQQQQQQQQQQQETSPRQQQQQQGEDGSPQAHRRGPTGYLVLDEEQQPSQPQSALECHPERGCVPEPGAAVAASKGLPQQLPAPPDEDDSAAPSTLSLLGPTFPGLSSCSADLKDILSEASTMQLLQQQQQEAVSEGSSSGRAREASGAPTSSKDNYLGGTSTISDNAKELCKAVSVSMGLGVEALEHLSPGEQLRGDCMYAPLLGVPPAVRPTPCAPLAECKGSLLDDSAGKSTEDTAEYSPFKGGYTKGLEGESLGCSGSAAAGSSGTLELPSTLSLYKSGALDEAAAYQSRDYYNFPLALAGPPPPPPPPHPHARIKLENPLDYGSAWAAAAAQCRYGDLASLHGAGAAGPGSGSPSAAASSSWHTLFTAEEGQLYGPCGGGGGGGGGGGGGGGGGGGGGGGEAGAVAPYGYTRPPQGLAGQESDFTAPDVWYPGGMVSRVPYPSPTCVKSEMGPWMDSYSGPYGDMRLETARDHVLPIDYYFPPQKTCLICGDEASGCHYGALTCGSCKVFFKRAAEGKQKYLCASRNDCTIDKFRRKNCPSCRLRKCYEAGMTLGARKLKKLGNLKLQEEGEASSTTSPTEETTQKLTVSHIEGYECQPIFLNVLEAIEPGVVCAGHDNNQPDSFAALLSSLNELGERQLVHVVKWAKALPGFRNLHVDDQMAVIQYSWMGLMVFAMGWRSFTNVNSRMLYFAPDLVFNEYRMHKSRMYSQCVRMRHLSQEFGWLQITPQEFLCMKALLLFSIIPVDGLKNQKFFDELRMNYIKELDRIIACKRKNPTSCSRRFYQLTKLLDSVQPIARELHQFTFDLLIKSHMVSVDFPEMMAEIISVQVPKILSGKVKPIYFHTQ
Test: VCAP AR Degradation Assay
Assay type: cell-based
Conditions: 24 h, AR ELISA; for DC50: concentration of compound when AR level = 50% of DMSO control; for remaining activity at up to 5 µM: top concentration 5 μM, read-out: Y (lowest measured AR level normalized to DMSO control, AR degradation efficiency)
Experimental: VCAP AR Degradation Assay. Test compounds were pre-dispensed into a Corning CellBind 96-well clear bottom plate (Cat #3300) using an acoustic dispenser to make a 10-point concentration series at 1:3 dilution for each compound. The final top concentration of each compound was 5 μM. DMSO at a final concentration of 0.1% was used as a control. VCaP cells cultured in DMEM with 8% fetal bovine serum (FBS) were seeded at 50K cells per well in a 200 μL volume into the compound plate and incubated at 37° C. in a CO2 incubator for 24 h. The medium was carefully removed from the cells and the plate was placed on ice. One hundred μL of ice-cold 1× cell lysis buffer from Cell Signaling Technologies (Cat #9803) was added to each well of the cells and the plate was incubated at 4° C. on a shaker for 1 h. Fifteen μL of cell lysate was used for AR ELISA detection using a PathScan Total Sandwich AR ELISA kit (Cell Signaling Technology, Cat #12580). AR levels in compound-treated wells were normalized to that of DMSO control and expressed as percent of control (PoC) (y). A Four Parameter Logistic Model (Sigmoidal Dose-Response Model) was used to determine the compound's DC50, and EC50, using the following equation: y=(A+((B−A)/(1+((C/x)^D)))) • A=YMin (lowest AR level normalized to DMSO control in response to compound treatment, as determined by curve fit) • B=YMax (maximum AR level as determined by curve fit) • C=EC50 • D=Hill Slope • x=compound concentration • EC50=the concentration of compound when y=(YMax−YMin)/2 • DC50=the concentration of the compound when y=50% of DMSO control (50% AR degradation) • y=AR protein level normalized to DMSO control
The lowest measured AR level normalized to DMSO control in response to compound treatment, termed Y value, was used to characterize the compound-mediated AR degradation efficiency.

| SMILES | DC50 [nM] | remaining activity at up to 5 µM [%] |
| --- | --- | --- |
| C[C@@H]1C[C@@H](CCO[C@H]2CC[C@H](N3C(=S)N(c4cnc(C#N)c(C(F)(F)F)c4)C(=O)C3(C)C)CC2)C[C@H](C)N1CC(=O)Nc1cccc2c(C3CCC(=O)NC3=O)nn(C)c12 (stereo partly drawn) [Cmpd 16, 2-((2R,4s,6S)-4-(2-(((trans)-4-(3-(6-Cyano-5-(trifluoromethyl)pyridin-3-yl)-5,5-dimethyl-4-oxo-2-thioxoimidazolidin-1-yl)cyclohexyl)oxy)ethyl)-2,6-dimethylpiperidin-1-yl)-N-(3-(2,6-dioxopiperidin-3-yl)-1-methyl-1H-indazol-7-yl)acetamide] | < 2 | 0 to 25 |
| Cn1nc(C2CCC(=O)NC2=O)c2cccc(NC(=O)CN3CCN(CCC[C@H]4CC[C@H](N5C(=S)N(c6ccc(C#N)c(C(F)(F)F)c6)C(=O)C5(C)C)CC4)C[C@@H]3C(F)(F)F)c21 (stereo partly drawn) [Cmpd 18, 2-((R)-4-(3-((trans)-4-(3-(4-Cyano-3-(trifluoromethyl)phenyl)-5,5-dimethyl-4-oxo-2-thioxoimidazolidin-1-yl)cyclohexyl)propyl)-2-(trifluoromethyl)piperazin-1-yl)-N-(3-(2,6-dioxopiperidin-3-yl)-1-methyl-1H-indazol-7-yl)acetamide] | 5 to 20 | 25 to 30 |
| Cn1nc(C2CCC(=O)NC2=O)c2cccc(NC(=O)CN3CCN(CCCO[C@H]4CC[C@H](N5C(=S)N(c6cnc(C#N)c(C(F)(F)F)c6)C(=O)C5(C)C)CC4)C[C@@H]3C(F)(F)F)c21 (stereo partly drawn) [Cmpd 20, 2-((R)-4-(3-(((trans)-4-(3-(6-Cyano-5-(trifluoromethyl)pyridin-3-yl)-5,5-dimethyl-4-oxo-2-thioxoimidazolidin-1-yl)cyclohexyl)oxy)propyl)-2-(trifluoromethyl)piperazin-1-yl)-N-(3-(2,6-dioxopiperidin-3-yl)-1-methyl-1H-indazol-7-yl)acetamide] | 2 to 5 | 0 to 25 |
| Cn1nc(C2CCC(=O)NC2=O)c2cccc(NC(=O)CN3CCN(CCO[C@H]4CC[C@H](N5C(=S)N(c6ccc(C#N)c(C(F)(F)F)c6)C(=O)C5(C)C)CC4)C[C@@H]3C(F)(F)F)c21 (stereo partly drawn) [Cmpd 14, 2-((R)-4-(2-((trans-4-(3-(4-Cyano-3-(trifluoromethyl)phenyl)-5,5-dimethyl-4-oxo-2-thioxoimidazolidin-1-yl)cyclohexyl)oxy)ethyl)-2-(trifluoromethyl)piperazin-1-yl)-N-(3-(2,6-dioxopiperidin-3-yl)-1-methyl-1H-indazol-7-yl)acetamide hydrochloride] | < 2 | 0 to 25 |
| C[C@@H]1C[C@@H](CCO[C@H]2CC[C@H](N3C(=S)N(c4ccc(C#N)c(C(F)(F)F)c4)C(=O)C3(C)C)CC2)C[C@H](C)N1CC(=O)Nc1cccc2c(C3CCC(=O)NC3=O)nn(C)c12 (stereo partly drawn) [Cmpd 12, 2-((2R,4s,6S)-4-(2-((trans-4-(3-(4-Cyano-3-(trifluoromethyl)phenyl)-5,5-dimethyl-4-oxo-2-thioxoimidazolidin-1-yl)cyclohexyl)oxy)ethyl)-2,6-dimethylpiperidin-1-yl)-N-(3-(2,6-dioxopiperidin-3-yl)-1-methyl-1H-indazol-7-yl)acetamide hydrochloride] | 2 to 5 | 0 to 25 |
| C[C@@H]1CN(CCO[C@H]2CC[C@H](N3C(=S)N(c4ccc(C#N)c(Cl)c4)C(=O)C3(C)C)CC2)C[C@H](C)N1CC(=O)Nc1cccc2c(C3CCC(=O)NC3=O)nn(C)c12 (stereo partly drawn) [Cmpd 3, 2-((2R,6S)-4-(2-((trans-4-(3-(3-Chloro-4-cyanophenyl)-5,5-dimethyl-4-oxo-2-thioxoimidazolidin-1-yl)cyclohexyl)oxy)ethyl)-2,6-dimethylpiperazin-1-yl)-N-(3-(2,6-dioxopiperidin-3-yl)-1-methyl-1H-indazol-7-yl)acetamide hydrochloride] | < 2 | 0 to 25 |
| C[C@@H]1CN(CCC[C@H]2CC[C@H](N3C(=S)N(c4ccc(C#N)c(C(F)(F)F)c4)C(=O)C3(C)C)CC2)C[C@H](C)N1CC(=O)Nc1cccc2c(C3CCC(=O)NC3=O)nn(C)c12 (stereo partly drawn) [Cmpd 2, 2-((2R,6S)-4-(3-(trans-4-(3-(4-cyano-3-(trifluoromethyl)phenyl)-5,5-dimethyl-4-oxo-2-thioxoimidazolidin-1-yl)cyclohexyl)propyl)-2,6-dimethylpiperazin-1-yl)-N-(3-(2,6-dioxopiperidin-3-yl)-1-methyl-1H-indazol-7-yl)acetamide hydrochloride] | 2 to 5 | 30 to 50 |
| C[C@@H]1C[C@H](OCC[C@H]2CC[C@H](N3C(=S)N(c4ccc(C#N)c(C(F)(F)F)c4)C(=O)C3(C)C)CC2)C[C@H](C)N1CC(=O)Nc1cccc2c(C3CCC(=O)NC3=O)nn(C)c12 (stereo partly drawn) [Cmpd 26, 2-((2R,4r,6S)-4-(2-((trans)-4-(3-(4-Cyano-3-(trifluoromethyl)phenyl)-5,5-dimethyl-4-oxo-2-thioxoimidazolidin-1-yl)cyclohexyl)ethoxy)-2,6-dimethylpiperidin-1-yl)-N-(3-(2,6-dioxopiperidin-3-yl)-1-methyl-1H-indazol-7-yl)acetamide] | 5 to 20 | 0 to 25 |
| Cn1nc(C2CCC(=O)NC2=O)c2cccc(NC(=O)CN3CCN(CCCO[C@H]4CC[C@H](N5C(=S)N(c6ccc(C#N)c(C(F)(F)F)c6)C(=O)C5(C)C)CC4)C[C@@H]3C(F)(F)F)c21 (stereo partly drawn) [Cmpd 21, 2-((R)-4-(3-(((trans)-4-(3-(4-Cyano-3-(trifluoromethyl)phenyl)-5,5-dimethyl-4-oxo-2-thioxoimidazolidin-1-yl)cyclohexyl)oxy)propyl)-2-(trifluoromethyl)piperazin-1-yl)-N-(3-(2,6-dioxopiperidin-3-yl)-1-methyl-1H-indazol-7-yl)acetamide] | < 2 | 0 to 25 |
| C[C@@H]1CN(CCC[C@H]2CC[C@H](N3C(=S)N(c4ccc(C#N)c(Cl)c4)C(=O)C3(C)C)CC2)C[C@H](C)N1CC(=O)Nc1cccc2c(C3CCC(=O)NC3=O)nn(C)c12 (stereo partly drawn) [Cmpd 11, 2-((2S,6R)-4-(3-(trans-4-(3-(3-Chloro-4-cyanophenyl)-5,5-dimethyl-4-oxo-2-thioxoimidazolidin-1-yl)cyclohexyl)propyl)-2,6-dimethylpiperazin-1-yl)-N-(3-(2,6-dioxopiperidin-3-yl)-1-methyl-1H-indazol-7-yl)acetamide] | 5 to 20 | 30 to 50 |
| C[C@@H]1CN(CCC[C@H]2CC[C@H](N3C(=S)N(c4cnc(C#N)c(Cl)c4)C(=O)C3(C)C)CC2)C[C@H](C)N1CC(=O)Nc1cccc2c(C3CCC(=O)NC3=O)nn(C)c12 (stereo partly drawn) [Cmpd 10, 2-((2R,6S)-4-(3-(trans-4-(3-(5-Chloro-6-cyanopyridin-3-yl)-5,5-dimethyl-4-oxo-2-thioxoimidazolidin-1-yl)cyclohexyl)propyl)-2,6-dimethylpiperazin-1-yl)-N-(3-(2,6-dioxopiperidin-3-yl)-1-methyl-1H-indazol-7-yl)acetamide] | 2 to 5 | 30 to 50 |
| C[C@@H]1CN(CCO[C@H]2CC[C@H](N3C(=S)N(c4cnc(C#N)c(C(F)(F)F)c4)C(=O)C3(C)C)CC2)C[C@H](C)N1CC(=O)Nc1cccc2c(C3CCC(=O)NC3=O)nn(C)c12 (stereo partly drawn) [Cmpd 4, 2-((2R,6S)-4-(2-((trans-4-(3-(6-Cyano-5-(trifluoromethyl)pyridin-3-yl)-5,5-dimethyl-4-oxo-2-thioxoimidazolidin-1-yl)cyclohexyl)oxy)ethyl)-2,6-dimethylpiperazin-1-yl)-N-(3-(2,6-dioxopiperidin-3-yl)-1-methyl-1H-indazol-7-yl)acetamide hydrochloride] | < 2 | 25 to 30 |
